For assay [1], the system named is Fer kinase domain. Nature of the assay: pTyr-Var library bacterial peptide display kinase screen (enrichment scores). The following applies: sheet "Fer". The assay is classed as biochemical, mouse.
Assay [2] concerns EPHB1 kinase domain. The assay is described as above. The settings on record: for Screen: sheet EPHB1, effect of the variant peptide relative to its reference peptide in the pTyr-Var library screen (enrichment scores); for Screen (variant relative to reference peptide, measured in the pTyr-Var library screen): sheet "EPHB1", variant seq vs reference seq, bacterial peptide display enrichment. The assay is classed as biochemical, human.

For assay [3], the system named is EPHB2 kinase domain. The assay is described as above. The settings on record: sheet EPHB2. The assay is classed as biochemical, human.
In assay [4] the target is T1, c-Src kinase domain (Homo sapiens, UniProt P12931). The description is as above. The assay is classed as biochemical. The settings on record: sheet "Src".
Assay [5] concerns the target T2, c-Abl kinase domain (Mus musculus, UniProt P00520).
T2 sequence (P00520 242-493 limits assumed): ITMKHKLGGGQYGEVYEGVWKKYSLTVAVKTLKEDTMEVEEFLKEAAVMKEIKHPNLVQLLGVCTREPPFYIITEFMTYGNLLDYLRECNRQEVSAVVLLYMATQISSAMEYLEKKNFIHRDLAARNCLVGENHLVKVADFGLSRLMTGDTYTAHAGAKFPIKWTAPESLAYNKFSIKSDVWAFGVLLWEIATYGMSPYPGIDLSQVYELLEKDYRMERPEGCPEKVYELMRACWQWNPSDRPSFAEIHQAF
Described as above. The class given is biochemical.

Assay [6] deals with T1, c-Src kinase domain. Nature of the assay: ADP-Quest continuous fluorimetric kinase assay (Michaelis-Menten parameters and initial rates). The class given is biochemical. The following applies: ADP-Quest assay, c-Src kinase domain 10 nM, 100 μM ATP, 37 °C; three to five replicates; error = standard error of global Michaelis-Menten fit.
Setting [7] is: value of the variant peptide against its reference peptide in the pTyr-Var library screen with Fer.
[8] abbreviates: effect of variant peptide relative to its reference peptide in the pTyr-Var library screen (enrichment scores).
The mark [9] stands for this setting: effect of the variant peptide relative to its reference peptide in the pTyr-Var library screen.
Where [10] appears, read: variant peptide versus its reference peptide in the pTyr-Var library screen.
Setting [11] is: sheet "Abl", effect of variant peptide relative to its reference peptide in pTyr-Var library screen (enrichment).
Setting [12] is: variant peptide relative to its reference peptide, pTyr-Var library screen enrichment.
The mark [13] stands for this setting: effect of the variant relative to its reference peptide in the pTyr-Var library screen.
Setting [14] is: fig5-data2, sheet "Abl", Screen for the variant/reference peptide pair, pTyr-Var library.

RGKLFYQEVPA [METTL11B_Y76_A72G]: the results for the Screen in assay [1] (setting [7]), in assay [2] and in assay [3] (setting [8]) were -1.394, -1.027 and -1.191, respectively.
PFRKLYESVKK [MKI67_Y241_W238R]: the Screen in assay [4] (setting [9]) is on record as -1.776; in assay [1] (setting [7]), -1.869; in assay [2], -3.688; in assay [3] (setting [8]), -2.876.
In the case of LLIMEYAKFGS [RET_Y806_V804M_YF], the Screen in assay [4] (setting [10]) was 0.7851; in assay [2] it was -1.009; in assay [3] (setting [8]) it was -0.7138.
Consider CGPLLYGLVHQ [PRKCG_Y122_S119P], for which the Screen is -0.4426 in assay [4] (setting [10]), -0.6662 in assay [1] (setting [7]), 0.3123 in assay [2] and -0.1456 in assay [3] (setting [8]).
Consider SSPQLYLVPFL [TAF4_Y652_P651L], for which the “Screen (variant relative to reference peptide, measured in the pTyr-Var library screen)” value in assay [2] was found to be 3.351. This substance also showed a Screen in assay [3] (setting [8]) of 2.197.
Take HNLDFYKMTTN [FGFR3_Y648_K650M_YF]: the Screen in assay [4] (setting [9]) is -2.668; in assay [1] (setting [7]), -0.9943; in assay [2], -1.054; in assay [3] (setting [8]) it was 0.0281.
In the case of AEARMYGVLPW [PLP1_Y207_D203E], the Screen in assay [4] (setting [10]) was -0.462; in assay [3] (setting [8]) it was -1.308.
For ACCLLYCGDVV [TUBA4A_Y319_R320C], the Screen in assay [4] (setting [10]) is on record as -0.4326; in assay [5] (setting [11]), -0.5266; in assay [1] (setting [12]), 2.253; in assay [3] (setting [13]), 3.709. Moreover, the “Screen (variant relative to reference peptide, measured in the pTyr-Var library screen)” value in assay [2] is on record as 4.284.
Consider DAKTIYDFTDT [PDK1_Y136_A134T], for which the Screen in assay [4] (setting [10]) is -0.8148; in assay [1] (setting [7]), -1.776; in assay [3] (setting [8]), -1.665.
Turning to KVASVYEALGF [NT5C_Y65_P68L], the Screen is reported as 0.2966 in assay [4] (setting [10]), -0.5868 in assay [1] (setting [7]), 1.12 in assay [2] and -0.4355 in assay [3] (setting [8]).
As to LFEDCYLLGTS [ASS1_Y87_R86C_YF], the figures for the Screen in assay [4] (setting [9]), in assay [2] and in assay [3] (setting [8]) were 2.612, -1.767 and -0.8272, respectively.
On to LNEAVYTKMMT [G6PD_Y401_P396L], for which the Screen in assay [4] (setting [9]) worked out at 0.3249; in assay [1] (setting [7]) it was 1.268; in assay [2], 1.441; in assay [3] (setting [8]), 2.035.
Turning to HSKGIYFVQLE [MGAT4B_Y262_Q257H_YF], the Screen was 0.1036 in assay [4] (setting [9]), -0.4742 in assay [5] (setting [14]) and -0.5096 in assay [3] (setting [8]).
Regarding PMFHSYVSLPF [PLXNA2_Y293_K289M], the Screen turned out to be 0.1709 in assay [5] (setting [14]), 0.7871 in assay [2] and 0.8579 in assay [3] (setting [8]).
LENSTYQFIHV [CRB1_Y760_R764H_YF]: the Screen is reported as 0.1019 in assay [4] (setting [9]); -1.13 in assay [5] (setting [14]); 0.6151 in assay [1] (setting [7]); 0.7891 in assay [2]; 0.62 in assay [3] (setting [8]).
Turning to LDTFIYDAAVL [GRIN2A_Y730_A727T], the Screen in assay [4] (setting [9]) was 0.2901; in assay [1] (setting [7]), -0.1876; in assay [2] it was -0.673; in assay [3] (setting [8]), -0.5027.
In the same order, the values of RGDCTYAPLLG [AR_Y269_M268T] are 0.1809, -1.638, 0.2378 and 0.1305.
Take LNCDRYSAGLL [PDE6A_Y275_V277A]: in assay [3] (setting [8]), the Screen is -1.197.
With PFGQWYESHFA [RPS8_Y113_R110G_YF], the Screen in assay [4] (setting [10]) was found to be 2.137; in assay [1] (setting [12]), 2.253; in assay [2] it was 2.825; in assay [3] (setting [8]), 2.604.
With IEEGTYGVAFR [CDK11B_Y449_V452A_YF], the Screen in assay [4] (setting [9]) is recorded as -0.1184; in assay [1] (setting [7]) it was -0.4849; in assay [2] it was -1.792; in assay [3] (setting [8]), -1.778.
As for RQNQEYEILMD [KRT39_Y379_L383M], the results for the Screen in assay [2] and in assay [3] (setting [8]) were 0.4118 and 0.3975, respectively.
As to FSPCDYQPCLA [TNS1_Y798_Y796C_YF], in assay [2], the “Screen (variant relative to reference peptide, measured in the pTyr-Var library screen)” value amounted to 3.912. In assay [3] (setting [13]), this substance came in with a Screen of 3.039.
For RPPELYALMSD [ZAP70_Y569_C564R], the Screen in assay [4] (setting [10]) stood at 1.184; in assay [5] (setting [11]) it was 3.577; in assay [3] (setting [13]), 1.779. In assay [2], the “Screen (variant relative to reference peptide, measured in the pTyr-Var library screen)” value is reported as 2.108.
As for QKTGDYFDLFG [PTPN11_Y62_N58K_YF], the figures for the Screen in assay [4] (setting [10]), in assay [2] and in assay [3] (setting [8]) were -1.277, -1.083 and -1.66, respectively.
On to ITNLLYHLVGW [GBA_Y412_V414L], for which the Screen in assay [4] (setting [9]) is on record as -0.6312; in assay [1] (setting [7]), 0.1481; in assay [2] it was -1.095; in assay [3] (setting [8]), -1.708.
Consider GQRDLYSGLNE [CD3E_Y199_Q204E], for which the Screen in assay [4] (setting [9]) is -0.3824; in assay [1] (setting [7]), -1.295; in assay [2], -0.9821; in assay [3] (setting [8]), -0.7383.
KLPFLYDDPFS [GPX2_Y127_P126L_YF]: the Screen is 1.127 in assay [1] (setting [7]), 2.862 in assay [2] and 2.625 in assay [3] (setting [8]).
Consider FQNSLYAPDFS [FAM92A_Y226_R222Q_YF], for which the Screen in assay [4] (setting [9]) came out at 0.8192; in assay [1] (setting [7]) it was 1.873; in assay [2], 0.991; in assay [3] (setting [8]) it was 1.651.
For LAIELYVVVCK [RHO_Y136_R135L], the Screen in assay [2] stood at 1.06; in assay [3] (setting [8]), 0.6623.
As to QLQQAYQEAFE [YWHAZ_Y149_S145L], the Screen in assay [5] (setting [11]) was 2.922; in assay [1] (setting [12]), 1.389; in assay [3] (setting [13]), 1.539.
Consider KLVQLYDVCTK [BTK_Y461_G462D], for which the Screen in assay [4] (setting [9]) was 0.2967; in assay [1] (setting [7]), 2.534; in assay [2] it was 3.126; in assay [3] (setting [8]) it was 2.907.
In the case of SPFMLYQFLKQ [RPAP3_Y567_D564Y_YF], the Screen is -1.029 in assay [4] (setting [10]), -1.212 in assay [1] (setting [12]), 2.24 in assay [2] and 1.841 in assay [3] (setting [8]).
For the substance QSSALYEDHFL [ASS1_Y83_R86H_YF], the Screen in assay [4] (setting [9]) worked out at 0.1278; in assay [1] (setting [7]) it was 0.8014; in assay [2], 0.2982; in assay [3] (setting [8]), 1.176.
FTNELYMMMRD [FGFR1_Y730_C725Y_YF]: the Screen in assay [2] is reported as 0.7713; in assay [3] (setting [8]), 0.5582.
As usually defined, the Km is the concentration of substrate that gives half-maximal velocity. As for “Ac-GCDECIYGMFPFRRRG-NH2 [Src Consensus (P-5C, D+1 G), Src Consensus-related peptide with +1 Gly]”, in assay [6], the Michaelis-Menten constant (Km) came out at 97 ± 10 µM and the kcat amounted to 4.4±0.2 s^–1.
For LFEDRYLLGPS [ASS1_Y87_T91P_YF], the Screen in assay [2] was -1.226; in assay [3] (setting [8]) it was -0.4556.
As for AQQPIYIRVEG [NLRP7_Y318_V319I], the results for the Screen in assay [4] (setting [10]), in assay [2] and in assay [3] (setting [8]) were -2.214, -2.185 and -2.079, respectively.
Take LVIIKYLPEWT [PSEN1_Y240_F237I]: the Screen in assay [2] came out at 1.338; in assay [3] (setting [8]), 1.457.
For the substance MVIPNYSSWTE [UROC1_Y185_R188W], the values for the Screen in assay [1] (setting [12]) and in assay [3] (setting [13]) were 2.023 and 4.793, respectively. Also, the “Screen (variant relative to reference peptide, measured in the pTyr-Var library screen)” value in assay [2] stood at 4.533.
As for NTFENYWPFFQ [GATM_Y103_K102N_YF], the results for the Screen in assay [4] (setting [9]), in assay [2] and in assay [3] (setting [8]) were 2.256, 4.344 and 3.46, respectively.
Turning to VGTKWYMAPEV [ACVRL1_Y375_R374W], the Screen came out at 2.34 in assay [2] and 2.182 in assay [3] (setting [8]).
As to PLDNLYAEPAV [PRPS1_Y146_V142L], the Screen in assay [4] (setting [10]) came to 0.376; in assay [1] (setting [7]), 0.1056; in assay [2] it was 0.8585; in assay [3] (setting [8]) it was 0.4426.
As for TDIVAYSGWVQ [SPTBN2_Y477_R480W], the Screen in assay [3] (setting [8]) is given as -2.35.
On to REVPVYTFSEP [FAM120B_Y368_D370Y_YF], for which the Screen in assay [4] (setting [9]) stood at 3.398; in assay [1] (setting [7]) it was 3.619; in assay [2] it was 0.7576.
